Data reported in patent US6194423A, “Fused isoquinolines as dopamine receptor ligands” (priority 1999, dated 2001).
Entries after “also recorded” stand apart in the source; their conditions may differ.

Assays:
[1] = system: D1 receptor; conditions: cited from earlier work
[2] = target: D2 receptors (Rattus norvegicus, UniProt P61169)
[3] = system: MPTP-treated monkey; conditions: MPTP-treated monkey model; cited from earlier work
[4] = system: D1 receptors; experiment: Adenylate cyclase activity (cAMP accumulation) in rat striatal homogenates; format: biochemical; conditions: rat striatum; for agonist activity / efficacy, in words: relative to dopamine
Protocol: Adenylate cyclase activity in rat striatum. The automated HPLC method of Schulz and Mailman was used to measure adenylate cyclase activity by separating cAMP from other labeled nucleotides. […] Triplicate determinations were performed for each drug concentration.
The reaction proceeded for 15 min at 30° C. and was terminated by the addition of 100 μL of 3% sodium dodecyl sulfate (SDS). […] Samples were centrifuged (10,000×g for 8-9 min), and the supernatants injected on an HPLC system (Waters Z-module or RCM 8×10 module equipped with a C18, 10 micron cartridge). […] The radioactivity in each fraction was determined by a flow-through radiation detector (Inus Systems, Tampa, Fla.) using Cerenkov counting. Sample recovery was based on UV measurement of total unlabeled CAMP peak areas quantified using PE Nelson (Cupertino, Calif.) Model 900 data collection modules and TurboChrom software.
Data analysis for adenylate cyclase studies. Data for each sample were expressed initially as pmol/mg/min cAMP. Baseline values of cAMP were subtracted from the total amount of cAMP produced in each drug condition. Data for each drug were expressed relative to the stimulation produced by 100 μM DA.

[5] = target: T1, rat striatal D1 receptors (Rattus norvegicus, UniProt P18901); experiment: D1 receptor binding ([3H]SCH23390) in rat striatal homogenates; conditions: for D1 binding nH (Hill slope): competition against 3H-SCH23390
T1 construct: Frozen rat striata were homogenized; from tissue; host or cells: rat striatum (adult male Sprague Dawley), washed membrane homogenate
T1 sequence (P18901 whole entry): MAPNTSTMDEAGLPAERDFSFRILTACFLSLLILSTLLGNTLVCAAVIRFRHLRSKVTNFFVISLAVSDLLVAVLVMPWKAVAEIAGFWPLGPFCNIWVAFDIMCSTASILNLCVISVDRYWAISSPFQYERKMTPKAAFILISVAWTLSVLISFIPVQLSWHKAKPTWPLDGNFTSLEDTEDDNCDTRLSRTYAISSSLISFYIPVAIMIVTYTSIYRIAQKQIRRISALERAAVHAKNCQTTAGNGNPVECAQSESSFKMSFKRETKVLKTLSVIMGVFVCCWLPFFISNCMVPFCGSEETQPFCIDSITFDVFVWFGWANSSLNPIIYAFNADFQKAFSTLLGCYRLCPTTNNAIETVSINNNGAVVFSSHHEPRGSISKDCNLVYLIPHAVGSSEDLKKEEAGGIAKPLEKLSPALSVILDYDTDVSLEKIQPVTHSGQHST
Protocol: Dopamine receptor binding assays.
Data analysis for radioreceptor assays. […] Data were normalized by expressing the average dpm at each competitor concentration as a percentage of total binding.
Competition curves were analyzed by non linear regression to determine estimates for the K0.5 and Hill slope (nH). Data represent the mean and standard error from three independent assays for each test compound.

[6] = target: T2, primate D1A receptors expressed in C-6 glioma cells (Macaca mulatta, UniProt O77680); experiment: Adenylate cyclase (cAMP accumulation) assay in C-6-mD1A cell membranes; format: biochemical, rhesus macaque; conditions: for agonist activity / efficacy, in words: cloned primate D1A receptors in C-6 glioma cells, relative to dopamine
T2 construct: expressed in transfected cells; host or cells: C-6 glioma cells (C-6-mD1A), membranes
T2 sequence (O77680 whole entry): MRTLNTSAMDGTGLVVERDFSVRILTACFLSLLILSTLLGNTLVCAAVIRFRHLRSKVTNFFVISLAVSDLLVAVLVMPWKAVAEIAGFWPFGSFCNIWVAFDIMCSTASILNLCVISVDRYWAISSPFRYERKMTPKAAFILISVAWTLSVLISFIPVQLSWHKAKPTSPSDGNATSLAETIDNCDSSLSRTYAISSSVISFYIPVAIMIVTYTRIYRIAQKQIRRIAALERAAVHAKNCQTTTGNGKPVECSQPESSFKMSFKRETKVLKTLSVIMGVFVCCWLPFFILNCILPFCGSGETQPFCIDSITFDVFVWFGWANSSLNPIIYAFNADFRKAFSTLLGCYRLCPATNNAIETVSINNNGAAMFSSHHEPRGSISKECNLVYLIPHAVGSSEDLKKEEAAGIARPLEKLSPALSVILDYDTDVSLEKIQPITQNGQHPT
Protocol: Cell Cultures. C-6 glioma cells expressing the rhesus macaque D1 A receptor, (C-6-mD1A; Machida et al., 1992) were grown in DMEM-H medium containing 4,500 mg/L glucose, L-glutamine, 5% fetal bovine serum and […] G418 or 2 μg/mL puromycin. Cells were maintained in a humidified incubator at 37° C. with 5% CO2.
Membrane Preparation. Cells were grown in 75 cm^2 flasks until confluent. The cells were rinsed and lysed with 10 mL of ice cold hypoosmotic buffer (HOB) (5 mM Hepes, 2.5 mM MgCl2, 1 mM EDTA; pH 7.4) for 10 minutes at 4° C. Cells were then scraped from the flasks using a sterile cell scraper from Baxter (McGaw Park, Ill.). Flasks received a final rinse with 5 mL of HOB. The final volume of the cell suspension recovered from each flask was ca. 14 mL. Scraped membranes from several flasks were then combined. The combined cell suspension was homogenized (10 strokes), 14 mL at a time, using a 15 mL Wheaton Teflon-glass homogenizer. The cell homogenates were combined and spun at 43,000×g (Sorvall RC-5B/SS-34, Du Pont, Wilmington, Del.) at 4° C. for 20 min. The supernatant was removed, and the pellet was resuspended (10 strokes) in 1 mL of ice cold HOB for each original flask of cells homogenized. This homogenate was then spun again at 43,000×g at 4° C. for 20 min. The supernatant was removed and the final pellet was resuspended (10 strokes) in ice cold storage buffer (50 mM Hepes, 6 mM MgCl2, 1 mM EDTA; pH 7.4) to yield a final concentration of ca. 2.0 mg of protein/mL. Aliquots of the final homogenate were stored in microcentrifuge tubes at -80° C.
Adenylate cyclase assay in C-6mD1A cells. Frozen membranes were thawed and added to assay tubes (10 μg protein/tube) containing a prepared reaction mixture [100 TnM Hepes, (pH 7.4), 100 mM NaCl, 4 mM MgCl2, 2 mM EDTA, 500 μM isobutyl methylxanthine (IBMX), 0.01% ascorbic acid, 10 μM pargyline, 2 mM ATP, 5 μM GTP, 20 mM phosphocreatine, 5 units of creatine phosphokinase (CPK), 1 μM propranolol] and selected drugs. The final reaction volume was 100 μL.
Basal cAMP activity was determined by incubation of tissue in the reaction mixture with no drug added. Tubes were assayed in duplicate and, after a 15 min incubation at 30° C., the reaction was stopped by the addition of 500 μL of 0.1 N HCl. Tubes were vortexed briefly, and then spun in a BHG HermLe Z 230 M microcentrifuge for five min at 15,000×g to precipitate particulates.
Radioimmunoassay (RIA) of CAMP. The concentration of cAMP in each sample was determined with an RIA of acetylated cAMP, modified from that previously described. Iodination of cAMP was performed using a method reported by Patel and Linden. Assay buffer was 50 mM sodium acetate buffer with 0.1% sodium azide (pH 4.75). Standard curves of cAMP were prepared in buffer at concentrations of 2 to 500 fmol/assay tube. To improve assay sensitivity, all samples and standards were acetylated with 10 μl of a 2:1 solution of triethylamine:acetic anhydride. Samples were assayed in duplicate. Each assay tube (total volume 300 μL) contained 25 μL of each sample, 75 μL of buffer, 100 μL of primary antibody (sheep, anti-cAMP, 1:100,000 dilution with 1% BSA in buffer) and 100 μL of [^125 I]-cAMP (50,000 dpm/100 μL of buffer). Tubes were vortexed and stored at 4° C. overnight (approx. 18 h). Antibody-bound radioactivity was separated by the addition of 25 μL of BioMag rabbit, anti-goat IgG (Advanced Magnetics, Cambridge Mass.), followed by vortexing and incubation at 4° C. for 1 h. […]

Sequence of D2 receptors (P61169 whole entry): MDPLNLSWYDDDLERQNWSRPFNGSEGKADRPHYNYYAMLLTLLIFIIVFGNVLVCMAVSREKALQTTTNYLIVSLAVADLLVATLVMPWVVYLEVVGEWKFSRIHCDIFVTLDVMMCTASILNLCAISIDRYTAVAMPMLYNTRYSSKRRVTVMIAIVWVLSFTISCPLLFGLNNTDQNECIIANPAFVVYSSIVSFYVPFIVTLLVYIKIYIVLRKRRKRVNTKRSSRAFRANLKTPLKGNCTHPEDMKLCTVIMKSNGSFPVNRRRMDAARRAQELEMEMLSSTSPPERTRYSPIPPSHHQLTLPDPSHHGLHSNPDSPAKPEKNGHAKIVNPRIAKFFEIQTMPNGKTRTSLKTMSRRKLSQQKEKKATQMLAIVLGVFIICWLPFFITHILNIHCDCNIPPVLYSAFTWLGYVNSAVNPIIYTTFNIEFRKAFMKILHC

SMILES: C=CCN1CCc2c(cc(O)c(O)c2Cl)C(c2ccccc2)C1 (stereo not drawn) [SKF 82958]
- intrinsic efficacy at D1 receptor, in words [1]: not to have full intrinsic efficacy in preparations with decreased receptor reserve

SMILES: CN(C)CCCN1c2ccccc2Sc2ccc(Cl)cc21 [Chlorpromazine]
- D2 binding nH (Hill slope) ([2]; competition against 3H-spiperone, rat striatal homogenates): 0.93 ± 0.01

SMILES: Oc1cc2c(cc1O)[C@H]1c3ccccc3CN[C@@H]1CC2 [dihydrexidine, (+)-trans-10,11-dihydroxy-5,6,6a,7,8,12b-hexahydrobenzo[a]phenanthridine]
- anti-parkinsonian effects [3]: exceptional anti-parkinsonian effects
- agonist activity / efficacy, in words [4]: full agonist relative to dopamine
- slope of D1 competition curve, in words ([5]; FIG. 3): shallower slopes
- D1 binding nH (Hill slope) ([5]; rat striatal homogenates): 0.65 ± 0.01
- agonist activity / efficacy, in words [6]: full efficacy; also recorded: full agonist relative to dopamine
- slope of D2 competition curve, in words ([2]; FIG. 6, compared with chlorpromazine): shallower than for the prototypical D2 antagonist chlorpromazine

SMILES: Oc1cc2c(cc1O)C(c1ccccc1)CNCC2 (single isomer, unassigned) [SKF 38393]
- agonist activity / efficacy, in words [4]: partial agonist
- intrinsic efficacy at D1 receptor, in words [1]: generally lacked full intrinsic efficacy
- D1 binding nH (Hill slope) ([5]; rat striatal homogenates): 0.75 ± 0.08
- agonist activity / efficacy, in words [6]: partial agonist
- agonist activity / efficacy, in words ([6]; listed as (+)-2): only of partial efficacy

SMILES: Oc1cc2c(cc1O)[C@H]1c3ccccc3CN[C@@H]1CC2 [6aR,12bS]
- intrinsic efficacy at D1 receptor, in words [1]: high affinity full agonist at the D1 receptor

SMILES: CN1CCc2cc(Cl)c(O)cc2[C@@H](c2ccccc2)C1 [SCH23390]
- D1 binding nH (Hill slope) ([5]; rat striatal homogenates): 1.05 ± 0.01

SMILES: NC[C@@H]1O[C@H](C23CC4CC(CC(C4)C2)C3)Cc2c1ccc(O)c2O [Example A-77636]
- anti-parkinsonian effects [3]: exceptional anti-parkinsonian effects

SMILES: Oc1ccc2c(c1O)Cc1cccc3c1C2CNC3 (racemic) [dinapsoline, (±)-8,9-dihydroxy-2,3,7,11b-tetrahydro-1H-naphtho[1,2,3-de] isoquinoline]
- EC50 ([4]; read-out: EC50 in stimulating synthesis of cAMP via D1 receptors): ~30 nM
- agonist activity / efficacy, in words [4]: full agonist activity; also recorded: full agonist relative to dopamine
- slope of D1 competition curve, in words ([5]; FIG. 3): shallow competition curve; also recorded: shallower slopes
- D1 affinity, in words ([5]; compared with dihydrexidine, rat striatal homogenates, FIG. 3): high affinity for dopamine D1 receptors; also recorded: almost identical affinity as dihydrexidine
- D1 binding nH (Hill slope) ([5]; rat striatal homogenates): 0.66
- D1 binding nH (Hill slope) ([5]; rat striatal homogenates, listed as (±)-4): 0.66 ± 0.01
- EC50 ([6]; C-6-mD1 cells, average of two experiments in duplicate, read-out: EC50 in stimulating synthesis of cAMP via D1 receptors): ~30 nM
- agonist activity / efficacy, in words [6]: full efficacy; also recorded: full agonist activity; also recorded: full agonist relative to dopamine
